Assay results: patent publication US20230139171A1 (SITA Information Networking Computing UK Limited, priority 2019, published 2023)
Like-named read-outs stand apart in the source and are kept apart here.

Assays:
human TLR7 = molecular target: T1, human TLR7 (Homo sapiens, UniProt Q9NYK1); test: TLR7 inhibition reporter assay (HEK-Blue cells, SEAP reporter, gardiquimod stimulation); assay type: cell-based; details: gardiquimod 7.5 μM
T1 construct: host or cells: HEK-Blue cells
T1 sequence (Q9NYK1 27-1049): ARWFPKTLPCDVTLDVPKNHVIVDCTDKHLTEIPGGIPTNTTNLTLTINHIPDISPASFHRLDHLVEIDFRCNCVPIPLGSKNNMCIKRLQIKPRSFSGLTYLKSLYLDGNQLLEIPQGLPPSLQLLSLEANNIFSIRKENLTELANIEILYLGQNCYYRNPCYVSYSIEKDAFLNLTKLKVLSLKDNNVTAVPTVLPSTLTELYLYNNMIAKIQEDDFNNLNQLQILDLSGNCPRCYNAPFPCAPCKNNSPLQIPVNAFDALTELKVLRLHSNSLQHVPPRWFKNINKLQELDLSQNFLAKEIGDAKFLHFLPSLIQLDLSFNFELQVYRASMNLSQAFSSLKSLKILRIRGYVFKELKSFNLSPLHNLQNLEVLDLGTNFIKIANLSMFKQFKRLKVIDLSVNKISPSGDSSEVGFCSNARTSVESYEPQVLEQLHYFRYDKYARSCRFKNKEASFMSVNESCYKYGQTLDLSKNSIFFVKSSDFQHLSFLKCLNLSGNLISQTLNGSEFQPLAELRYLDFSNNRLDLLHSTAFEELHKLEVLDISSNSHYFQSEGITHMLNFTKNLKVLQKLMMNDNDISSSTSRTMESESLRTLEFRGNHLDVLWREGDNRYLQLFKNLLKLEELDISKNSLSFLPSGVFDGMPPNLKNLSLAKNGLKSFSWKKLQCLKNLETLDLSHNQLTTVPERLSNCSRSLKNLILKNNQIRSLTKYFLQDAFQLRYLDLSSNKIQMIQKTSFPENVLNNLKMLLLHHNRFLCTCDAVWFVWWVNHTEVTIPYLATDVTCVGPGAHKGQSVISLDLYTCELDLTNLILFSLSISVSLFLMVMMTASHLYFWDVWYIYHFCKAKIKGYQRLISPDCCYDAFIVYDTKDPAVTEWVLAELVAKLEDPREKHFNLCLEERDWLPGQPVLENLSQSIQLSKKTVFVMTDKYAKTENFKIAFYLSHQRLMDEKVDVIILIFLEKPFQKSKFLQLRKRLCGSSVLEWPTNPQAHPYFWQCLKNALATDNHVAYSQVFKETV
Protocol: (§1) TLR7/8/9 Inhibition Reporter Assays
(§2) HEK-Blue™-cells (Invivogen) overexpressing human TLR7, TLR8 or TLR9 receptors were used for screening inhibitors of these receptors using an inducible SEAP (secreted embryonic alkaline phosphatase) reporter gene under the control of the IFN-β minimal promoter fused to five NF-κB and AP-1-binding sites. Briefly, cells are seeded into Greiner 384 well plates (15000 cells per well for TLR7, 20,000 for TLR8 and 25,000 for TLR9) and then treated with test compounds in DMSO to yield a final dose response concentration range of 0.05 nM-50 μM. After a 30 minute compound pre-treatment at room temperature, the cells are then stimulated with a TLR7 ligand (gardiquimod at a final concentration of 7.5 μM), TLR8 ligand (R848 at a final concentration of 15.9 μM) or TLR9 ligand (ODN2006 at a final concentration of 5 nM) to activate NF-κB and AP-1 which induce the production of SEAP. After a 22 hour incubation at 37° C., 5% CO2, SEAP levels are determined with the addition of HEK-Blue™ Detection reagent (Invivogen), a cell culture medium that allows for detection of SEAP, according to manufacturer's specifications. The percent inhibition is determined as the % reduction in the HEK-Blue signal present in wells treated with agonist plus DMSO alone compared to wells treated with a known inhibitor.

human TLR8 = molecular target: T2, human TLR8 (Homo sapiens, UniProt Q9NR97); test: TLR8 inhibition reporter assay (HEK-Blue cells, SEAP reporter, R848 stimulation); assay type: cell-based; details: R848 15.9 μM
T2 construct: host or cells: HEK-Blue cells
T2 sequence (Q9NR97 27-1041): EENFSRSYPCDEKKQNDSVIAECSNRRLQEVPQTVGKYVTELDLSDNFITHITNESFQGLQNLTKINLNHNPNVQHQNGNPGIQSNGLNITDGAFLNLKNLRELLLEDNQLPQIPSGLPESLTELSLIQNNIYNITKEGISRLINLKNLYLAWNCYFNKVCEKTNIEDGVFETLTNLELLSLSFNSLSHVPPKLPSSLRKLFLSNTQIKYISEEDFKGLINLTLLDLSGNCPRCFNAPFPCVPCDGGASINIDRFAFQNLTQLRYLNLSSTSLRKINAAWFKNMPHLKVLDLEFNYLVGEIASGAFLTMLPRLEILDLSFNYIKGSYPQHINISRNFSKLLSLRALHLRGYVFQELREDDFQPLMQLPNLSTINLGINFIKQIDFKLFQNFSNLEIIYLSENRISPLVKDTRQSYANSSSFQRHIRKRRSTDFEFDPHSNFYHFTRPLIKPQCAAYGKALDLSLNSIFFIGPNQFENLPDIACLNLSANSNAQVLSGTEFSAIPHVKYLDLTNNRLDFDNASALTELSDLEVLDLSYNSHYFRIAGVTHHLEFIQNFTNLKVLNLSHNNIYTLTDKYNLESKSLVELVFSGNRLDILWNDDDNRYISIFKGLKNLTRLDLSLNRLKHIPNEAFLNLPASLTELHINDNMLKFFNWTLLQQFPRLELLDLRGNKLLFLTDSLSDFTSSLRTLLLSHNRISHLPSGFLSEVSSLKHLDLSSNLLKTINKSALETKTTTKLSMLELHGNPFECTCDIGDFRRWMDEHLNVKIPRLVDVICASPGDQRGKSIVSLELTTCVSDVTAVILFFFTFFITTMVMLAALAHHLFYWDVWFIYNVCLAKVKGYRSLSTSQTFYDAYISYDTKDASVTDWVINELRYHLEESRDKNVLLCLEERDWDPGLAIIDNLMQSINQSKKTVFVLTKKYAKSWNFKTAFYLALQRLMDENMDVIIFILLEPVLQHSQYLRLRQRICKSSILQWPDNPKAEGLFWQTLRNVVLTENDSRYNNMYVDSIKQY
Protocol: as §1, §2

[1] = HEK-Blue cells overexpressing human TLR7, SEAP reporter, read-out: TLR7 IC50
[2] = HEK-Blue cells overexpressing human TLR8, SEAP reporter, read-out: TLR8 IC50

Row | IC50 (human TLR7; [1]) [nM] | IC50 (human TLR8; [2]) [nM] | SMILES | IC50 (human TLR7; TLR7 IC50, HEK-Blue cells overexpressing human TLR7, SEAP reporter) [nM] | IC50 (human TLR8; TLR8 IC50, HEK-Blue cells overexpressing human TLR8, SEAP reporter) [nM]
1 | 15.5 | 11.1 | Cc1c(-c2[nH]c3sc(N4C[C@@H](C)N(CC(=O)N(C)C)C[C@@H]4C)nc3c2C(C)C)cn2ncnc2c1C [Example 335, 2-((2R,5S)-4-(5-(7,8-dimethyl-[1,2,4]triazolo[1,5-a]pyridin-6-yl)-6-isopropyl-4H-pyrrolo[3,2-d]thiazol-2-yl)-2,5-dimethylpiperazin-1-yl)-N,N-dimethylacetamide] |  | 
2 | 7.7 | 2.71 | Cc1c(-c2[nH]c3sc(N4CCN(CC(N)=O)CC4)nc3c2C(C)C)cn2ncnc2c1C [Example 285, 2-(4-(5-(7,8-dimethyl-[1,2,4]triazolo[1,5-a]pyridin-6-yl)-6-isopropyl-4H-pyrrolo[3,2-d]thiazol-2-yl)piperazin-1-yl)acetamide] |  | 
3 | 4.36 | 3.43 | CNC(=O)CN1CCC(c2nc3c(C(C)C)c(-c4cn5ncnc5c(C)c4C)[nH]c3s2)CC1 [Example 56, 2-(4-(5-(7,8-dimethyl-[1,2,4]triazolo[1,5-a]pyridin-6-yl)-6-isopropyl-4H-pyrrolo[3,2-d]thiazol-2-yl)piperidin-1-yl)-N-methylacetamide] |  | 
4 | 43.6 | 124 | Cc1c(-c2[nH]c3sc(CN4CC5(CCOCC5)C4)nc3c2C(C)C)cn2ncnc2c1C [Example 404, 2-((5-(7,8-dimethyl-[1,2,4]triazolo[1,5-a]pyridin-6-yl)-6-isopropyl-4H-pyrrolo[3,2-d]thiazol-2-yl)methyl)-7-oxa-2-azaspiro[3.5]nonane] |  | 
5 | 118 | 9.33 | Cc1c(-c2[nH]c3sc(N4CC5(CN(CC6CCOCC6)C5)C4)nc3c2C(C)C)cn(C)c(=O)c1C [Example 307, 5-(6-isopropyl-2-(6-((tetrahydro-2H-pyran-4-yl)methyl)-2,6-diazaspiro[3.3]heptan-2-yl)-4H-pyrrolo[3,2-d]thiazol-5-yl)-1,3,4-trimethylpyridin-2(1H)-one] |  | 
6 | 126 | 132 | Cc1cc(-c2[nH]c3sc(C(=O)NCC4(S(C)(=O)=O)CC4)nc3c2C(C)C)cn2ncnc12 [Example 399, 6-isopropyl-5-(8-methyl-[1,2,4]triazolo[1,5-a]pyridin-6-yl)-N-((1-(methylsulfonyl)cyclopropyl)methyl)-4H-pyrrolo[3,2-d]thiazole-2-carboxamide] |  | 
7 | 221 | 463 | Cc1cc(-c2[nH]c3sc(C(=O)NC4COC4)nc3c2C(C)C)cn2ncnc12 [Example 397, 6-isopropyl-5-(8-methyl-[1,2,4]triazolo[1,5-a]pyridin-6-yl)-N-(oxetan-3-yl)-4H-pyrrolo[3,2-d]thiazole-2-carboxamide] |  | 
8 | 47.4 | 168 | Cc1c(-c2[nH]c3sc(CN4CC5(COC5)C4)nc3c2C(C)C)cn2ncnc2c1C [Example 408, 6-((5-(7,8-dimethyl-[1,2,4]triazolo[1,5-a]pyridin-6-yl)-6-isopropyl-4H-pyrrolo[3,2-d]thiazol-2-yl)methyl)-2-oxa-6-azaspiro[3.3]heptane] |  | 
9 | 5.22 | 20.2 | CNC(=O)CN1CCN(c2nc3c(C(C)C)c(-c4cn5ncnc5c(C)c4C)[nH]c3s2)[C@H](C)C1 [Example 315, (R)-2-(4-(5-(7,8-dimethyl-[1,2,4]triazolo[1,5-a]pyridin-6-yl)-6-isopropyl-4H-pyrrolo[3,2-d]thiazol-2-yl)-3-methylpiperazin-1-yl)-N-methylacetamide] |  | 
10 |  |  | Cc1c(-c2[nH]c3sc(CN4CC5(C4)CS(=O)(=O)C5)nc3c2C(C)C)cn2ncnc2c1C [Example 403, 6-((5-(7,8-dimethyl-[1,2,4]triazolo[1,5-a]pyridin-6-yl)-6-isopropyl-4H-pyrrolo[3,2-d]thiazol-2-yl)methyl)-2-thia-6-azaspiro[3.3]heptane 2,2-dioxide] | 26.9 | 156
11 | 12 | 52.4 | Cc1c(-c2[nH]c3sc(N4CCN(C5COC5)C[C@H]4C)nc3c2C(C)C)cn2ncnc2c1C [Example 316, (R)-5-(7,8-dimethyl-[1,2,4]triazolo[1,5-a]pyridin-6-yl)-6-isopropyl-2-(2-methyl-4-(oxetan-3-yl)piperazin-1-yl)-4H-pyrrolo[3,2-d]thiazole] |  | 
12 | 28.6 | 279 | Cc1c(-c2[nH]c3sc(CN4CCOCC4)nc3c2C(C)C)cn2ncnc2c1C [Example 407, 4-((5-(7,8-dimethyl-[1,2,4]triazolo[1,5-a]pyridin-6-yl)-6-isopropyl-4H-pyrrolo[3,2-d]thiazol-2-yl)methyl)morpholine] |  | 
13 | 2.74 | 142 | Cc1c(-c2[nH]c3sc(CN4CCNC(=O)C4)nc3c2C(C)C)cn2ncnc2c1C [Example 406, 4-((5-(7,8-dimethyl-[1,2,4]triazolo[1,5-a]pyridin-6-yl)-6-isopropyl-4H-pyrrolo[3,2-d]thiazol-2-yl)methyl) piperazin-2-one] |  | 
14 | 3.98 | 3.02 | CC(C)c1c(-c2cn(C)c3ncccc23)[nH]c2sc(C3CCN(CC(N)=O)CC3)nc12 [Example 31, 2-(4-(6-isopropyl-5-(1-methyl-1H-pyrrolo[2,3-b]pyridin-3-yl)-4H-pyrrolo[3,2-d]thiazol-2-yl)piperidin-1-yl) acetamide] |  | 
15 | 32.7 | 10.4 | Cc1c(-c2[nH]c3sc(C4CCN(CC(N)=O)CC4)nc3c2C(C)C)cn(C)c(=O)c1C [Example 64, 2-(4-(6-isopropyl-5-(1,4,5-trimethyl-6-oxo-1,6-dihydropyridin-3-yl)-4H-pyrrolo[3,2-d]thiazol-2-yl)piperidin-1-yl)acetamide] |  | 
16 | 1120 |  | Cc1cc(-c2[nH]c3sc(N4CCN(CC(C)(C)O)C[C@H]4C)nc3c2C(C)C)cn2ncnc12 [Example 359, (R)-1-(4-(6-isopropyl-5-(8-methyl-[1,2,4]triazolo[1,5-a]pyridin-6-yl)-4H-pyrrolo[3,2-d]thiazol-2-yl)-3-methylpiperazin-1-yl)-2-methylpropan-2-ol] |  | 
